Our source for the AC50 values is ChEMBL document CHEMBL5291721, “A preclinical secondary pharmacology resource illuminates target-adverse drug reaction associations of marketed drugs” (Nat Commun, 2023).

The target of test [1] is 5-hydroxytryptamine receptor 2B (Homo sapiens, UniProt P41595). The class given is functional, cell-based.
In test [2] the target is T1, 5-hydroxytryptamine receptor 1A (Homo sapiens, UniProt P08908).
T1 sequence (P08908 whole entry): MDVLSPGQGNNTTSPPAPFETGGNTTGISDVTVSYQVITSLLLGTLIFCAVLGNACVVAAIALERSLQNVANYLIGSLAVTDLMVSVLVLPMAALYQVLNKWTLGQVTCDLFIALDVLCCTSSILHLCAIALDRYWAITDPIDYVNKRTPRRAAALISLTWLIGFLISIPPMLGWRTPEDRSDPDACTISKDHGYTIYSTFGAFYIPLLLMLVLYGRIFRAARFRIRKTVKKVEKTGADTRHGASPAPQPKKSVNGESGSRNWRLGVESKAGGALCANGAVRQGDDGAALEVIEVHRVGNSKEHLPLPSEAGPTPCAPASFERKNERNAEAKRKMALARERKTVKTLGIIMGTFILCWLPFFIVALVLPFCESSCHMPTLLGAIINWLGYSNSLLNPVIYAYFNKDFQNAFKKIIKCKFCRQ
The class given is functional, cell-based.

Another test addresses D(1A) dopamine receptor (Homo sapiens, UniProt P21728). Type of test: functional, cell-based.
The target of test [3] is T2, Equilibrative nucleoside transporter 1 (Homo sapiens, UniProt Q99808).
T2 sequence (Q99808 whole entry): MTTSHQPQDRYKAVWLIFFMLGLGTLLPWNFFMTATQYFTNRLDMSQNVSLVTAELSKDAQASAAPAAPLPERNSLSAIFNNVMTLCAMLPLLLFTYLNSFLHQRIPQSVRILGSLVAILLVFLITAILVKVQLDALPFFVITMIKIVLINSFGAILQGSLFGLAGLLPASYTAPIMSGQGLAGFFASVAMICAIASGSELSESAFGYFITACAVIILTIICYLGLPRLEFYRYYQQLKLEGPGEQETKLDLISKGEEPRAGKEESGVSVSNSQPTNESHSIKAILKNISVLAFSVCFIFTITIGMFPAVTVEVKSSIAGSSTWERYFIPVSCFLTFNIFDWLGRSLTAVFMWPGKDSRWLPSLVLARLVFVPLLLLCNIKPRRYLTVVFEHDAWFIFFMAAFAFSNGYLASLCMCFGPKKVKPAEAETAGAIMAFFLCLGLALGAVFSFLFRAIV

A further test has as its target T3, B2 bradykinin receptor (Homo sapiens, UniProt P30411).
T3 sequence (P30411 whole entry): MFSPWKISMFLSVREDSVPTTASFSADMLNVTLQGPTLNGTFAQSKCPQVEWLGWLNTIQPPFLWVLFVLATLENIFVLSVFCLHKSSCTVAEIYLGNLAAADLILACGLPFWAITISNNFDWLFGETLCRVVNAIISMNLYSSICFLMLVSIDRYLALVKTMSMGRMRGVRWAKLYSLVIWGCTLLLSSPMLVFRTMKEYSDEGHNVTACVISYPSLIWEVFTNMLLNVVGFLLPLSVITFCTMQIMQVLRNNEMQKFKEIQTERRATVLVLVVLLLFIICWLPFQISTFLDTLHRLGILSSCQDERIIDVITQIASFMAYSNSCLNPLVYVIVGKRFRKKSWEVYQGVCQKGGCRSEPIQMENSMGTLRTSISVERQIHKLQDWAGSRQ

Test [4] concerns the target T4, Cholecystokinin receptor type A (Homo sapiens, UniProt P32238).
T4 sequence (P32238 whole entry): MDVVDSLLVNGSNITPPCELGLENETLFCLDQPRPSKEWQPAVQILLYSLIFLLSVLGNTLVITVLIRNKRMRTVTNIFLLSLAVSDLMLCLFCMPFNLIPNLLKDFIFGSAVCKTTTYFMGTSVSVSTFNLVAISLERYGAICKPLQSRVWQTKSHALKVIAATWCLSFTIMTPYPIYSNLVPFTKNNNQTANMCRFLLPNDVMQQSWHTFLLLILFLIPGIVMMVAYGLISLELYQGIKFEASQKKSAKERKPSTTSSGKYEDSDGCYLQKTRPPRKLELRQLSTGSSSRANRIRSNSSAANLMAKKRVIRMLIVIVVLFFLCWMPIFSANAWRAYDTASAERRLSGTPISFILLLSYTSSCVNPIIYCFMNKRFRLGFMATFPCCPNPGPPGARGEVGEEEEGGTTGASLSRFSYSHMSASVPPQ

A further test addresses T5, Progesterone receptor (Homo sapiens, UniProt P06401).
T5 sequence (P06401 whole entry): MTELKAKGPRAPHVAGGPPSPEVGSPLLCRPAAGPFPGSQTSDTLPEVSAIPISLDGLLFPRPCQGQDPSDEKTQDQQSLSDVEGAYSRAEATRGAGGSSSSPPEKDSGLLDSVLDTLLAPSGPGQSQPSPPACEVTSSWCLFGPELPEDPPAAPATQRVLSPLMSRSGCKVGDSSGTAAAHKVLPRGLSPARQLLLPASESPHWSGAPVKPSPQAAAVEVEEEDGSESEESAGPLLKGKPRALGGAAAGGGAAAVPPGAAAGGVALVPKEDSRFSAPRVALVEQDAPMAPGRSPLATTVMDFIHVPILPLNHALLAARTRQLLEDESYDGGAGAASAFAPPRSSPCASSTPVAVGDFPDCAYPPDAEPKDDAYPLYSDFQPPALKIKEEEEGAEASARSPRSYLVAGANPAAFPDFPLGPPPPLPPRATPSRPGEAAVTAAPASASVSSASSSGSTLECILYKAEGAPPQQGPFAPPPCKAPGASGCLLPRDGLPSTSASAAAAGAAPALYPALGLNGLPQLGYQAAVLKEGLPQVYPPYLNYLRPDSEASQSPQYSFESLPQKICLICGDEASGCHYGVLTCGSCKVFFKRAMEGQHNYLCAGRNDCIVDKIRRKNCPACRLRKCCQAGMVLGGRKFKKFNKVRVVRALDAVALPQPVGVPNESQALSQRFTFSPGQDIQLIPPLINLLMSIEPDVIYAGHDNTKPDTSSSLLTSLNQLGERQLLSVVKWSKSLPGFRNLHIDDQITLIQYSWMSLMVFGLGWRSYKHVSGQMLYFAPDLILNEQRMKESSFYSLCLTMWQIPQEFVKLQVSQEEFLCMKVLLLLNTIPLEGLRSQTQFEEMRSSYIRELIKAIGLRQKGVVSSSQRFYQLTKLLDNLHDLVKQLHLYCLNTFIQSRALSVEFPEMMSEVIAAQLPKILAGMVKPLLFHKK
The class given is functional.
Note: assay procedure not described here.

Sequence of D(1A) dopamine receptor (P21728 whole entry): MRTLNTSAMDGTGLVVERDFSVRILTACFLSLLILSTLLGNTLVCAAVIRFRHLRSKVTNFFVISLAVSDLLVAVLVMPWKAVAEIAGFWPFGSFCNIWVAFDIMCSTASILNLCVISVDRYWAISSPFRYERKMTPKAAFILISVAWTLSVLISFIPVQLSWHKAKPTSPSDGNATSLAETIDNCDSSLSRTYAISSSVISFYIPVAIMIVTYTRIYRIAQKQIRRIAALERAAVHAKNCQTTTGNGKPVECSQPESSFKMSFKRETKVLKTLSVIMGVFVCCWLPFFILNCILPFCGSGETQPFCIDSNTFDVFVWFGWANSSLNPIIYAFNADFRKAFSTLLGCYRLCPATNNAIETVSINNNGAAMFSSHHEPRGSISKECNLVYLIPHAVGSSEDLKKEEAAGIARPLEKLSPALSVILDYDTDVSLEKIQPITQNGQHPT
Sequence of 5-hydroxytryptamine receptor 2B (P41595 whole entry): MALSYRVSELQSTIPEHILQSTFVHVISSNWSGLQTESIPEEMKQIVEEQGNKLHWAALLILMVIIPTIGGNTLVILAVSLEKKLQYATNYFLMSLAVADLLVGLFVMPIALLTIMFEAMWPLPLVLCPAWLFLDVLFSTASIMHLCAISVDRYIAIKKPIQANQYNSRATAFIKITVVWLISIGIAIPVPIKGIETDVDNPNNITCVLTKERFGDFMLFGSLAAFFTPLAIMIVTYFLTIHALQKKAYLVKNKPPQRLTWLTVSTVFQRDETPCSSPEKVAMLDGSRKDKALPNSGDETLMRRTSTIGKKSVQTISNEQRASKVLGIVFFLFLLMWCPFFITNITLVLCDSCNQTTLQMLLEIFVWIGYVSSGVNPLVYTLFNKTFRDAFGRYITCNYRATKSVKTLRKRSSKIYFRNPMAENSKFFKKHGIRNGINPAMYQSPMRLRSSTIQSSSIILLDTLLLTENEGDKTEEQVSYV

With `CC/C(=C(\c1ccccc1)c1ccc(OCCN(C)C)cc1)c1ccccc1` [TAMOXIFEN], the AC50 in test [1] and in test [2] was greater than 10 µM in each case.
For the compound `COc1ccc2c3c1O[C@H]1[C@@H](O)CC[C@H]4[C@@H](C2)N(C)CC[C@@]341` [DIHYDROCODEINE], the half-maximal activity concentration (AC50) (on D(1A) dopamine receptor; in test [1]; in test [2]) was greater than 30 µM in each case.
Regarding `O=C1C(O)=C([C@H]2CC[C@H](c3ccc(Cl)cc3)CC2)C(=O)c2ccccc21` [ATOVAQUONE], the half-maximal activity concentration (AC50) (in test [3]; at D(1A) dopamine receptor; at B2 bradykinin receptor; in test [4]; in test [1]; in test [2]) was greater than 30 µM each time. The same compound yielded a concentration at half-maximal activity (AC50) on Progesterone receptor greater than 30 µM.
Take `Clc1ccccc1C(c1ccccc1)(c1ccccc1)n1ccnc1` [CLOTRIMAZOLE]: the AC50 in test [1] and in test [2] was greater than 10 µM each time.
Regarding `Cc1c(OCC(F)(F)F)ccnc1C[S+]([O-])c1nc2ccccc2[nH]1` (stereo not given) [LANSOPRAZOLE], the half-maximal activity concentration (AC50) in test [3] is greater than 30 µM; at D(1A) dopamine receptor it was greater than 10 µM; at B2 bradykinin receptor, greater than 30 µM; in test [4] it was greater than 30 µM; in test [1], greater than 10 µM; in test [2] it was greater than 10 µM.
Regarding `C[C@H]1COc2c(C3(N)CC3)c(F)cc3c(=O)c(C(=O)O)cn1c23` [PAZUFLOXACIN], the concentration at half-maximal activity (AC50) (in test [3]; at D(1A) dopamine receptor; on B2 bradykinin receptor; in test [4]; in test [1]; in test [2]) was greater than 10 µM throughout. Further, the half-maximal activity concentration (AC50) at Progesterone receptor was greater than 30 µM.
For `CC(CC1c2ccccc2CCc2ccccc21)CN(C)C` (stereo not given) [BUTRIPTYLINE], the AC50 (at D(1A) dopamine receptor; in test [1]; in test [2]) was greater than 30 µM throughout.
`Cc1nnc2n1-c1ccc(Cl)cc1C(c1ccccc1Cl)=NC2` [TRIAZOLAM]: the AC50 was greater than 30 µM in test [3]; greater than 10 µM on D(1A) dopamine receptor; greater than 30 µM at B2 bradykinin receptor; greater than 30 µM in test [4]; greater than 10 µM in test [1]; greater than 10 µM in test [2].
Regarding `C#C[C@]1(O)CC[C@H]2[C@@H]3[C@H](C)CC4=C(CCC(=O)C4)[C@H]3CC[C@@]21C` [TIBOLONE], the AC50 (in test [3]; at D(1A) dopamine receptor; at B2 bradykinin receptor; in test [4]; in test [1]; in test [2]) was greater than 30 µM each time.
In the case of `Cc1cc(C(C)(C)C)c(O)c(C)c1CC1=NCCN1` [OXYMETAZOLINE], the concentration at half-maximal activity (AC50) is greater than 30 µM at D(1A) dopamine receptor, 0.266 µM in test [1] and greater than 30 µM at Progesterone receptor.
As for `CC1(C)CCC(CN2CCN(c3ccc(C(=O)NS(=O)(=O)c4ccc(NCC5CCOCC5)c([N+](=O)[O-])c4)c(Oc4cnc5[nH]ccc5c4)c3)CC2)=C(c2ccc(Cl)cc2)C1` [VENETOCLAX], the half-maximal activity concentration (AC50) at D(1A) dopamine receptor and at Progesterone receptor was greater than 30 µM each time.
Consider `NC(=O)OCC(COC(N)=O)c1ccccc1` [FELBAMATE], for which the half-maximal activity concentration (AC50) (in test [3]; on D(1A) dopamine receptor; on B2 bradykinin receptor; in test [4]; in test [1]; in test [2]) was greater than 10 µM throughout. Besides, at Progesterone receptor, the AC50 was greater than 10 µM.
For `COc1ccc(CCNCC(O)COc2cccc(C)c2)cc1OC` (stereo not given) [BEVANTOLOL], the concentration at half-maximal activity (AC50) is greater than 30 µM in test [3]; greater than 30 µM at D(1A) dopamine receptor; greater than 10 µM at B2 bradykinin receptor; greater than 10 µM in test [4]; greater than 10 µM in test [1]; greater than 10 µM at Progesterone receptor.
Turning to `CC(C)(C)NCC(O)COc1cccc2c1CCC(=O)N2` (stereo not given) [CARTEOLOL], the AC50 is greater than 10 µM in test [3]; greater than 10 µM on D(1A) dopamine receptor; greater than 10 µM at B2 bradykinin receptor; greater than 10 µM in test [4]; greater than 10 µM in test [1]; 8.8 µM in test [2]. This compound came in with a half-maximal activity concentration (AC50) on Progesterone receptor greater than 10 µM.
For `COc1cccc(C2(O)CCCCC2CN(C)C)c1` (stereo not given) [TRAMADOL], the AC50 in test [3] was greater than 30 µM; at D(1A) dopamine receptor, greater than 10 µM; on B2 bradykinin receptor, greater than 30 µM; in test [4] it was greater than 30 µM; in test [1], greater than 10 µM; in test [2], greater than 10 µM.
As for `C[C@@H]1O[C@@H](O[C@@H]2C=C3CC[C@@H]4[C@H](CC[C@]5(C)[C@@H](c6ccc(=O)oc6)CC[C@]45O)[C@@]3(C)CC2)[C@H](O)[C@H](O)[C@H]1O` [PROSCILLARIDIN], the AC50 (on D(1A) dopamine receptor; on B2 bradykinin receptor; in test [4]; in test [1]; in test [2]; at Progesterone receptor) was greater than 30 µM each time.
In the case of `NC(=O)CN1CC(O)CC1=O` (stereo not given) [OXIRACETAM], the AC50 (in test [3]; on D(1A) dopamine receptor; on B2 bradykinin receptor; in test [4]; in test [1]; in test [2]) was greater than 30 µM throughout. The AC50 at Progesterone receptor was greater than 30 µM.
Turning to `Brc1c(NC2=NCCN2)ccc2nccnc12` [BRIMONIDINE], the half-maximal activity concentration (AC50) (in test [3]; at D(1A) dopamine receptor; at B2 bradykinin receptor; in test [4]; in test [1]; on Progesterone receptor) was greater than 30 µM each time.
With THIMEROSAL, the values for the AC50 (on D(1A) dopamine receptor; in test [1]) were greater than 100 µM and greater than 30 µM, respectively.
Regarding `Fc1ccc(C(c2ccccc2)(c2ccccc2F)n2ccnc2)cc1` (stereo not given) [FLUTRIMAZOLE], the AC50 in test [3] is greater than 10 µM; at D(1A) dopamine receptor, greater than 30 µM; on B2 bradykinin receptor, greater than 30 µM; in test [4], greater than 30 µM; in test [1], greater than 30 µM; on Progesterone receptor, greater than 30 µM.

The term AC50 denotes the midpoint of the concentration-response curve, whichever way the signal moves.
